≈ marks a conversion by molar mass, not a printed value.

What all share (assay type): cell-based, human
One test deals with RKO. Put plainly: Monolayer assay (modified propidium iodide), RKO. The conditions noted are these: Colon, 4 days of treatment. From the text:
(§1) Oncotest GmbH, Germany's proprietary tumor cell line panel comprises 40 cell lines. These cell lines were derived from 15 different tumor histotypes, each represented by 1 to 6 different cell lines. Cell lines were established from cancer of the bladder (3), colon (4), head and neck (1), lung (6), breast (3), pancreas (3), prostate (4), ovary (2), kidney (3), liver (1), stomach (1) and the uteri body (1), as well as from melanoma (3), sarcoma (2) and pleuramesothelioma (3). Out of these 40 cell lines, 24 cell lines were established at Oncotest, from patient-derived tumor xenografts. […]
(§2) Stock solutions of the test compounds (330 μg/mL in DMSO) were prepared and stored in small aliquots (200 μL) at −20° C. […] Each concentration was evaluated in triplicate. […]
(§3) Cells were plated in 96-well flat-bottom microtiter plates at a cell density of 4,000 to 10,000 cells/well. […] To measure the viable cell number, the remaining adherent cells were killed and permeabilized by repeated freezing and thawing and PI fluorescence was measured using the Cytofluor 4000 microplate reader (excitation λ=530 nm, emission λ=620 nm), which was a measure for the number of cells which survived treatment. […] IC-values were calculated based on the principle of linear two-point curve fit. […]

The test system of a further test is LXF 529L. Nature of the test: Monolayer assay (modified propidium iodide), LXF 529L. The conditions noted are these: Lung, 4 days of treatment.
From the text: as §1, §2, §3

The subject of another test is H 460. Put plainly: Monolayer assay (modified propidium iodide), H 460. The conditions noted are these: H 460, Lung, 4 days of treatment.
From the text: as §1, §2, §3

Another test relates to MAXF 401NL. Nature of the test: Monolayer assay (modified propidium iodide), MAXF 401NL. The conditions noted are these: Mammary, 4 days of treatment.
From the text: as §1, §2, §3

In a further test the test system is OVXF 899L. Put plainly: Monolayer assay (modified propidium iodide), OVXF 899L. The conditions noted are these: Ovarian, 4 days of treatment.
From the text: as §1, §2, §3

The next test relates to LNCAP. Nature of the test: Monolayer assay (modified propidium iodide), LNCAP. The conditions noted are these: Prostate, 4 days of treatment.
From the text: as §1, §2, §3

The next test has as its system PXF 1118L. Nature of the test: Monolayer assay (modified propidium iodide), PXF 1118L. The conditions noted are these: Pleuramesothelioma, 4 days of treatment.
From the text: as §1, §2, §3

A further test concerns PXF 698L. Nature of the test: Monolayer assay (modified propidium iodide), PXF 698L. The conditions noted are these: Pleuramesothelioma, 4 days of treatment.
From the text: as §1, §2, §3

As for `C/C=C/C(O)C(C)/C=C/C(=N\O)C(C)C(O)C(C)C1OC(=O)/C(OC)=C/C(C)=C/C(C)C(O)C(CC)C(O)C(C)C/C(C)=C/C=C/C1OC` (stereo not shown) [Example 7, (3Z,5E,13E,15E)-18-((5Z,6E,10E)-3,9-Dihydroxy-5-(hydroxymino)-4,8-dimethyldodeca-6,10-dien-2-yl)-9-ethyl-8,10-dihydroxy-3,17-dimethoxy-5,7,11,13-tetramethyl oxacyclooctadeca-3,5,13,15-tetraen-2-one], the IC70 in the test with RKO came out at 0.6 ng/mL (≈ 0.87 nM); with LXF 529L, 7.0 ng/mL (≈ 10.1 nM); in the test on H 460, 2.0 ng/mL (≈ 2.9 nM); in the test with MAXF 401NL, 8.0 ng/mL (≈ 11.6 nM); in the test on OVXF 899L, 31.0 ng/mL (≈ 44.9 nM); in the test with LNCAP, 15.0 ng/mL (≈ 21.7 nM). The IC70 was above 1000 ng/mL with PXF 1118L and 2.0 ng/mL (≈ 2.9 nM) in the test with PXF 698L. The half-inhibitory concentration (IC50) was 0.2 ng/mL (≈ 0.29 nM) in the test on RKO (Homo sapiens, 96 h); 1 ng/mL (≈ 1.45 nM) in the test with LXF 529L (Homo sapiens, 96 h); 0.7 ng/mL (≈ 1.01 nM) in the test on H 460 (Homo sapiens, NCI-H460, 96 h); 3 ng/mL (≈ 4.35 nM) with MAXF 401NL (Homo sapiens, 96 h); 8 ng/mL (≈ 11.6 nM) in the test on OVXF 899L (Homo sapiens, 96 h); 3 ng/mL (≈ 4.35 nM) in the test on LNCAP (Homo sapiens, 96 h). Also, the IC50 in the test with PXF 1118L (Homo sapiens, 96 h) stood at 432 ng/mL (≈ 626 nM); in the test on PXF 698L (Homo sapiens, 96 h) it was 0.4 ng/mL (≈ 0.58 nM).

What is called IC70 is the concentration needed for an effect of 70%. Broadly, the IC50 is the concentration at which inhibition is half-maximal.

Source of the values: patent US8637683B2, “Macrocyclic lactone derivatives for the treatment of cancer” (Piramal Enterprises Limited, priority 2009, dated 2014).
